Data reported in patent publication US10023602B2, “Hamamelitannin analogues and uses thereof” (Universiteit Gent, priority 2014, dated 2018).

Tests used:
[1] = test system: methicillin resistant S. aureus Mu50 strain (S. aureus ATCC700699) biofilm; experiment: Biofilm susceptibility to vancomycin, pre-treatment regimen (biofilm formed in presence of compound, then vancomycin); format: cell-based; settings: for Pretreat (100 μM): percentage Colony Forming Units (CFU's) per biofilm: compound 100 μM during biofilm formation; for Pretreat (100 μM): percentage Colony Forming Units (CFU's) per biofilm / Pretreat. (25 μM): percentage Colony Forming Units (CFU's) per biofilm: then VAN 20 μg/ml, compared to the untreated (negative) control; for EC50: concentration needed to get 50% killing compared to antibiotic alone (VAN 20 μg/ml) and complete killing, read-out: Pretreat. (EC50); for Pretreat. (25 μM): percentage Colony Forming Units (CFU's) per biofilm: compound 25 μM during biofilm formation
In short: (§1)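 Mu50 biofilms from 10^8 CFU/ml inoculum (4 h adhesion, then 20 h, 37 °C). Pre-treatment: compound (0.1-250 μM) present during biofilm formation, then vancomycin 20 μg/ml alone 24 h; combination: mature biofilm given vancomycin 20 μg/ml plus compound 24 h. Survivors counted by plating versus vancomycin alone.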

[2] = test system: methicillin resistant S. aureus Mu50 strain (S. aureus ATCC700699) biofilm; experiment: Biofilm susceptibility to vancomycin, combination treatment regimen (mature biofilm treated with compound plus vancomycin); format: cell-based; settings: for Combin. (100 μM): percentage Colony Forming Units (CFU's) per biofilm: compound 100 μM together with VAN 20 μg/ml on mature biofilm; for Combin. (100 μM): percentage Colony Forming Units (CFU's) per biofilm / Combin. (25 μM): percentage Colony Forming Units (CFU's) per biofilm: compared to the untreated (negative) control; for EC50: concentration needed to get 50% killing compared to antibiotic alone (VAN 20 μg/ml) and complete killing, read-out: Combin. (EC50); for Combin. (25 μM): percentage Colony Forming Units (CFU's) per biofilm: compound 25 μM together with VAN 20 μg/ml on mature biofilm
In short: as §1

| Compound | Pretreat (100 μM): percentage Colony Forming Units (CFU's) per biofilm [1] [percentage] | EC50 [1] [µM] | Combin. (100 μM): percentage Colony Forming Units (CFU's) per biofilm [2] [percentage] | EC50 [2] [µM] | Pretreat. (25 μM): percentage Colony Forming Units (CFU's) per biofilm [1] [percentage] | Combin. (25 μM): percentage Colony Forming Units (CFU's) per biofilm [2] [percentage] |
| --- | --- | --- | --- | --- | --- | --- |
| O=C(NC[C@H]1OC[C@@](O)(CN2C(=O)c3ccccc3C2=O)[C@@H]1O)c1ccccc1Cl [compound 231, 2-chloro-N-(((2R,3R,4S)-4-((1,3-dioxoisoindolin-2-yl)methyl)-3,4-dihydroxytetrahydrofuran-2-yl)methyl)benzamide] | 8.18 | 2.63 | 28.85 | 39 |  |  |
| CC(C)(C)C(=O)NC[C@H]1OC[C@@](O)(CNC(=O)c2ccccc2)[C@@H]1O [compound 226, N-(((3S,4R,5R)-3,4-dihydroxy-5-(pivalamidomethyl)tetrahydrofuran-3-yl)methyl)benzamide] | 50.74 |  | 28.64 |  |  |  |
| O=C(NC[C@H]1OC[C@@](O)(CNC(=O)c2ccnnc2)[C@@H]1O)c1ccnnc1 [compound 257, N,N′-(((2R,3R,4S)-3,4-dihydroxytetrahydrofuran-2,4-diyl)bis(methylene))bis(pyridazine-4-carboxamide)] | 1.71 | 7.13 | 17.13 | 18 |  |  |
| O=C(NC[C@]1(O)CO[C@H](CNC(=O)c2c(Cl)cccc2Cl)[C@H]1O)c1ccccc1 [compound 192, N-(((2R,3R,4S)-4-(benzamidomethyl)-3,4-dihydroxytetrahydrofuran-2-yl)methyl)-2,6-dichlorobenzamide] | 31.41 | 59.2 | 43.74 | 136 |  |  |
| O=C(NC[C@]1(O)CO[C@H](CNC(=O)c2ccccc2F)[C@H]1O)c1ccccc1 [compound 170, N-(((2R,3R,4S)-4-(benzamidomethyl)-3,4-dihydroxytetrahydrofuran-2-yl)methyl)-2-fluorobenzamide] | 11.84 |  | 16.30 |  |  |  |
| COc1cc(C(=O)NC[C@H]2OC(O)[C@@](O)(CNC(=O)c3cc(OC)c(OC)c(OC)c3)[C@@H]2O)cc(OC)c1OC (stereo partly drawn) [compound 16, N,N′-(((2R,3R,4R)-3,4,5-trihydroxytetrahydrofuran-2,4-diyl)bis(methylene))bis(3,4,5-trimethoxybenzamide)] | 62.41 | 207 | 71.85 | 238 |  |  |
| O=C(NC[C@]1(O)CO[C@H](CN2Cc3ccccc3C2=O)[C@H]1O)c1ccccc1 [compound 230, N-(((3S,4R,5R)-3,4-dihydroxy-5-((1-oxoisoindolin-2-yl)methyl)tetrahydrofuran-3-yl)methyl)benzamide] | 24.90 | 57.7 | 30.15 | 60.2 |  |  |
| N#Cc1ccc(C(=O)NC[C@]2(O)CO[C@H](CNC(=O)c3ccccc3Cl)[C@H]2O)cc1 [compound 236, 2-chloro-N-(((2R,3R,4S)-4-((4-cyanobenzamido)methyl)-3,4-dihydroxytetrahydrofuran-2-yl)methyl)benzamide] |  |  |  |  | 73.00 | 70.73 |
| O=C(NC[C@H]1OC[C@@](O)(CNC(=O)c2ccccc2)[C@@H]1O)c1cccc(-c2ccccc2)c1 [compound 168, N-(((2R,3R,4S)-4-(benzamidomethyl)-3,4-dihydroxytetrahydrofuran-2-yl)methyl)-[1,1′-biphenyl]-3-carboxamide] | 9.830 |  | 32.61 |  |  |  |
| CC(C)S(=O)(=O)NC[C@H]1OC[C@@](O)(CNC(=O)c2ccccc2)[C@@H]1O [compound 213, N-(((3S,4R,5R)-3,4-dihydroxy-5-(((1-methylethyl)sulfonamido)methyl)tetrahydrofuran-3-yl)methyl)benzamide] | 28.32 |  | 32.67 |  |  |  |
| O=C(NC[C@H]1OC[C@@](O)(CNC(=O)c2ccnnc2)[C@@H]1O)c1ccc(-c2ccccc2)cc1 [compound 256, N-(((3S,4R,5R)-5-([1,1′-biphenyl]-4-carboxamidomethyl)-3,4-dihydroxytetrahydrofuran-3-yl)methyl)pyridazine-4-carboxamide] | 14.25 | 15.5 | 29.97 | 53.4 |  |  |
| O=C(NC[C@]1(O)CO[C@H](CNC(=O)c2ccccc2Cl)[C@H]1O)c1ccc(Cl)cc1 [compound 234, 2-chloro-N-(((2R,3R,4S)-4-((4-chlorobenzamido)methyl)-3,4-dihydroxytetrahydrofuran-2-yl)methyl)benzamide] |  |  |  |  | 61.12 | 56.96 |
| O=C(NC[C@H]1OC[C@@](O)(CNC(=O)c2ccccc2)[C@@H]1O)c1ccc(C(F)(F)F)cc1 [compound 157, N-(((2R,3R,4S)-4-(benzamidomethyl)-3,4-dihydroxytetrahydrofuran-2-yl)methyl)-4-(trifluoromethyl)benzamide] | 15.95 |  | 11.25 |  |  |  |
| O=C(NC[C@]1(O)CO[C@H](CNC(=O)c2cnc(Cl)cc2Cl)[C@H]1O)c1ccccc1 [compound 198, N-(((2R,3R,4S)-4-(benzamidomethyl)-3,4-dihydroxytetrahydrofuran-2-yl)methyl)-4,6-dichloronicotinamide] | 19.18 | 10.8 | 11.25 | 7.52 |  |  |
| O=C(NC[C@]1(O)CO[C@H](CNC(=O)c2ccccc2-c2ccccc2)[C@H]1O)c1ccccc1 [compound 177, N-(((2R,3R,4S)-4-(benzamidomethyl)-3,4-dihydroxytetrahydrofuran-2-yl)methyl)-[1,1′-biphenyl]-2-carboxamide] | 15.07 |  | 13.23 |  |  |  |
| Cc1ccccc1C(=O)NC[C@H]1OC[C@@](O)(CNC(=O)c2ccccc2)[C@@H]1O [compound 169, N-(((2R,3R,4S)-4-(benzamidomethyl)-3,4-dihydroxytetrahydrofuran-2-yl)methyl)-2-methylbenzamide] | 11.68 | 13.7 | 13.87 | 52.6 |  |  |
| COc1ccc(C(=O)NC[C@]2(O)CO[C@H](CNC(=O)c3ccccc3Cl)[C@H]2O)cc1 [compound 235, 2-chloro-N-(((2R,3R,4S)-3,4-dihydroxy-4-((4-methoxybenzamido)methyl)tetrahydrofuran-2-yl)methyl)benzamide] |  |  |  |  | 66.10 | 57.35 |
